Test results reported in patent publication US20160375103A1, “DIURETIC AND NATRIURETIC POLYPEPTIDES” (Mayo Foundation for Medical Education and Research, priority 2006, published 2016).

Assays:
[1] = tested on: normal dogs; experiment: intravenous infusion of ASBNP.1 in normal dogs; assay type: in vivo, dog
Protocol: A truncated form of ASBNP that terminates prior to the cysteine and contains a 13 amino acid C-terminus tail was designed and synthesized. This polypeptide is referred to as an ASBNP.1 polypeptide (FIG. 1). The biological effects of intravenous ABNP.1 infusion were tested in normal dogs. Briefly, six normal dogs were infused with 2, 10, and 100 pmol of an ASBNP.1 polypeptide preparation, i.e., each dog received consecutive infusions of 2, 10, and 100 pmol of an ASBNP.1 polypeptide preparation. Urine flow, urinary sodium excretion, distal fractional tubular sodium reabsorption, proximal tubular fractional sodium reabsorption, mean arterial blood pressure, plasma cGMP levels, glomerular filtration rate, renal blood flow, and plasma renin levels were measured as described elsewhere (Chen et al., Am. J. Physiol. Regul. Integr. Comp. Physiol., 288: R1093-R1097 (2005) and Haber et al., J. Clin. Endocrinol. Metab., 29:1349-1355 (2005)). […] Systemic administration of the ASBNP.1 polypeptide had no effect on glomerular filtration rate, renal blood flow, or mean arterial blood pressure (FIGS. 8-10).

[2] = tested on: HUVECs; experiment: cGMP levels in HUVECs; assay type: cell-based, human
Text: FIG. 11 is a bar graph plotting cGMP levels in HUVECS treated with BNP, ASBNP, or ASBNP.1 at the indicated concentrations. OX represents oxidized, and non-OX represents non-oxidized.
(§1) In some embodiments, a polypeptide provide herein can lack the ability to stimulate production of cGMP in human umbilical vascular endothelial cells (HUVEC). Intracellular cGMP production can be assayed using, for example, the BIOTRACK cGMP enzyme immunoassay kit (Amersham Pharmacia Biotech). In other embodiments, a polypeptide provide herein can lack vasoactivity. Vasoactivity can be assessed by determining responsitivity of a blood vessel (e.g., a carotid artery in an organ chamber) to the polypeptide.
(§2) The following experiments were performed to compare the activities of BNP, ASBNP, and ASBNP.1 polypeptides. Briefly, synthesized forms of BNP, ASBNP, and ASBNP.1 were administered to HUVECs and HASMCs, and cGMP levels were determined.

[3] = tested on: HASMCs; experiment: cGMP levels in HASMCs; assay type: cell-based
Protocol: FIG. 12 is a bar graph plotting cGMP levels in HASMCS treated with BNP, ASBNP, or ASBNP.1 at the indicated concentrations. OX represents oxidized, and non-OX represents non-oxidized.
as §2

[4] = tested on: rabbit artery that was pre-constricted; experiment: vasoactivity in pre-constricted rabbit artery (vascular rings); settings: compared with BNP
Text: FIG. 13 is a line graph plotting vasoactivity measurements obtained from rabbit vascular rings treated with either BNP, ASBNP, or ASBNP.1 at the indicated concentrations.
as §1, §2

[5] = tested on: paced dog model of congestive heart failure (CHF); experiment: intravenous infusion in paced dog model of congestive heart failure (CHF), consecutive doses; assay type: in vivo; settings: paced CHF dogs
Protocol: The biological effects of intravenous ABNP.1 infusion were tested in a paced dog model of congestive heart failure (CHF). Briefly, 10 dogs underwent surgical implantation of a programmable cardiac pacemaker (Medtronic, Minneapolis, Minn.). After postoperative recovery, the animals received 11 days of rapid ventricular pacing (240 beats/minute), which can induce overt congestive heart failure CHF as described elsewhere (Chen et al., Circulation, 100:2443-2448 (1999)). The dogs were intravenously infused with 2, 10, and 100 pmol of an ASBNP.1 polypeptide preparation, i.e., each dog received consecutive infusions of 2, 10, and 100 pmol of an ASBNP.1 polypeptide preparation.
Acute hemodynamic studies were performed at the time of infusion, and comparisons were made between groups and among dogs at baseline and during each infusion. Urine flow, urinary sodium excretion, distal fractional tubular sodium reabsorption, proximal tubular fractional sodium reabsorption, plasma cGMP levels, rennin levels, glomerular filtration rate, renal blood flow, mean arterial blood pressure, urinary cGMP excretion, urinary ANP excretion, urinary BNP excretion, plasma BNP levels, plasma ANP levels, pulmonary capillary wedge pressure, cardiac output, systemic vascular resistance, angiotensin II levels, and aldosterone levels were measured as described elsewhere (Chen et al., Am. J. Physiol. Regul. Integr. Comp. Physiol., 288: R1093-R1097 (2005) and Haber et al., J. Clin. Endocrinol. Metab., 29:1349-1355 (2005)). […] There was no effect on distal tubular fractional sodium reabsorption, proximal tubular fractional sodium reabsorption renal blood flow, plasma cGMP, mean arterial blood pressure, plasma BNP, plasma ANP, pulmonary capillary wedge pressure, or angiotensin II levels (FIGS. 17, 18, 19, 22, 23, 28, 29, and 32).

[6] = tested on: paced dogs; experiment: 90 minute infusion of ASBNP.1 (100 pmol/kg/minute) in paced dogs; assay type: in vivo, dog; settings: 100 pmol/kg/minute for 90 minutes
Protocol: FIG. 34 is a graph plotting urinary sodium excretion (microEq/min) in paced dogs at the indicated times after beginning administration of ASBNP.1 polypeptide (100 pmol/kg/minute) for 90 minutes. BL=baseline; 30 min=30 minutes of ASBNP.1 polypeptide administration; 60 min=60 minutes of ASBNP.1 polypeptide administration; 90 min=90 minutes of ASBNP.1 polypeptide administration; Washout=after washout period at stop of infusion; Rec 1=30 minutes after stopping infusion; and Rec 2=60 minutes after stopping infusion.
In another experiment, an ASBNP.1 polypeptide preparation was administered to dogs (100 pmol/kg/minute for 90 minutes). Urinary sodium excretion, urine flow, mean arterial blood pressure, renal blood flow, pulmonary capillary wedge pressure, and cardiac output were measured after 30, 60, and 90 minutes of administering the ASBNP.1 polypeptide. Administration of ASBNP.1 polypeptide was followed by a washout period of 30 minutes. The washout was performed by administering normal saline. Urinary sodium excretion, urine flow, mean arterial blood pressure, renal blood flow, pulmonary capillary wedge pressure, and cardiac output were measured again after the washout period, and after each of two recovery periods at 60 minutes (Rec 1) and 90 minutes (Rec 2) after administration of the ASBNP.1 polypeptide.

[7] = normal dogs, 2, 10, 100 pmol i.v.
[8] = normal dogs, consecutive i.v. infusions of 2, 10, 100 pmol
[9] = consecutive i.v. infusions of 2, 10, 100 pmol

ASBNP.1: truncated form of ASBNP that terminates prior to the cysteine, 13 amino acid C-terminus tail; 42 amino acid residues (SEQ ID NO:1) (SPKMVQGSGCFGRKMDRISSSSGLGCKGKHPLPPRPPSPIPV)
distal and proximal tubular fractional sodium reabsorption [1, 7]: targeted distal tubules
glomerular filtration rate [1, 7]: no effect
mean arterial blood pressure [1, 7]: no effect
renal blood flow [1, 7]: no effect
urinary sodium excretion (natriuretic effect) [1, 8]: diuretic and natriuretic effects
urine flow (diuretic effect) [1, 8]: diuretic and natriuretic effects
plasma cGMP ([1]; normal dogs, super high is 100 pmol): elevated at the super high dose
plasma renin ([1]; normal dogs, two higher doses 10 and 100 pmol): trend towards a decreased renin at the two higher doses
cGMP levels in HUVECs [2]: no effect
cGMP levels in HASMCs [3]: no effect
vasoactivity on pre-constricted rabbit artery [4]: no effect
aldosterone [5]: increased from the administration of the low level of polypeptide and continued to increase throughout the remainder of the experiment
angiotensin II levels [5]: no effect
cardiac output [5]: decreased from the administration of the high level of polypeptide and remained decrease throughout the remainder of the experiment
distal tubular fractional sodium reabsorption [5]: no effect
mean arterial blood pressure [5]: no effect
plasma ANP [5]: no effect
plasma BNP [5]: no effect
plasma cGMP [5]: no effect
proximal tubular fractional sodium reabsorption [5]: no effect
pulmonary capillary wedge pressure [5]: no effect
renal blood flow [5]: no effect
renin [5]: increased throughout the washout period
systemic vascular resistance [5]: increased during the high, super high, washout, and recovery 1 phases
urinary sodium excretion (natriuretic effect) [5, 9]: diuretic but not natriuretic effects
urine flow (diuretic effect) [5, 9]: diuretic but not natriuretic effects
glomerular filtration rate ([5]; high is 10 pmol): increased glomerular filtration rate at the high level
urinary cGMP excretion ([5]; high is 10 pmol, super high is 100 pmol): increased urinary cGMP excretion at the high and super high levels
urinary ANP excretion ([5]; high level (10 pmol)): increased urinary ANP excretion
urinary BNP excretion ([5]; super high level (100 pmol)): increased urinary BNP excretion
PAP (pulmonary arterial pressure) [6]: without a change
RAP (right arterial pressure) [6]: without a change
cardiac output [6]: No significant effect
mean arterial blood pressure [6]: No significant effect
renal blood flow [6]: No significant effect
urinary sodium excretion [6]: increase
urine flow [6]: increase
pulmonary capillary wedge pressure ([6]; 60 minutes after administration): decrease

ASBNP: variant form of BNP generated by alternative splicing, 60 amino acid residues in length (SEQ ID NO:4) (SPKMVQGSGCFGRKMDRISSSSGLGCKGKHPLPPRPPSPIPVCDTVRVTLGFVVSGNHTL) [reference compound]
cGMP levels in HUVECs [2]: minimal effects
cGMP levels in HASMCs [3]: minimal effects
vasoactivity on pre-constricted rabbit artery [4]: no effect
